The term IC50 denotes the concentration at which inhibition is half-maximal. Read a high IC50 as a need for much substance.

This is an account of results in patent publication US20250235566A1, “[…]-[…] LABELING PRECURSORS AND RA[…] THEREFROM” (Medianezia GmbH, priority 2021, published 2025).

Type in all cases: biochemical
Test [1] has as its target T1, rhFAP (fibroblast activation protein) (Homo sapiens, UniProt Q12884).
T1 construct: made in house
T1 sequence (Q12884 1-760): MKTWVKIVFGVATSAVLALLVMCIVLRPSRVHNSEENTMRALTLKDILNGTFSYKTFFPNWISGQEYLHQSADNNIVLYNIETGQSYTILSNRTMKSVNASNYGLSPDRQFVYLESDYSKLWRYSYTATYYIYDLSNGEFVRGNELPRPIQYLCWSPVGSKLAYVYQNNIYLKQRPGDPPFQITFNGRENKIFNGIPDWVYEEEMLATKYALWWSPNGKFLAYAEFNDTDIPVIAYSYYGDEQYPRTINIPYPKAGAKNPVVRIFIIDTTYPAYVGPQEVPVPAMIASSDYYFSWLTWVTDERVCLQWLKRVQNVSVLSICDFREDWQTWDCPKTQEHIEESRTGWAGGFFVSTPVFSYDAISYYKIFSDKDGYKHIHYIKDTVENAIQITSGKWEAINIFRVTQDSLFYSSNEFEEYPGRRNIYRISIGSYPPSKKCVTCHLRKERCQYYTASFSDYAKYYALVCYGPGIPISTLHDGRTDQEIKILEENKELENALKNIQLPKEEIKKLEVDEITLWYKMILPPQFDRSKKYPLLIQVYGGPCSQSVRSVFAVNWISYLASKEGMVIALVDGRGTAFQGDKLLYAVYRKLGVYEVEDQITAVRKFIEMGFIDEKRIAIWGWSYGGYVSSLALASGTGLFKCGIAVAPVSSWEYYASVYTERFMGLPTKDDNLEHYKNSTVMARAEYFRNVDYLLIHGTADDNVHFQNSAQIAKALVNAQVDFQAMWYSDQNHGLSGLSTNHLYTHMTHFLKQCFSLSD
In words: FAP IC50 measurement with Z-Gly-Pro-AMC substrate. The conditions noted are these: Z-Gly-Pro-AMC 50 μM, pH=8, 15 min pre-incubation at 37° C. The procedure:
(§1) The rhFAP (fibroblast activation protein), PREP (prolyl endopeptidase), DPP4 (dipeptidylpeptidase IV), DPP8 (dipeptidylpeptidase VIII) and DPP 9 (dipeptidylpeptidase IX) enzymes were expressed before use in the in vitro assays and then purified.
(§2) IC50 measurements were conducted with the Infinite 200 instrument (Tecan Group Ltd.) and evaluated with the Magellan software.
(§3) The data were evaluated by GraFit 7 using a non-linear fit according to the following equation: […]
(§4) where y is the remaining enzyme activity compared to the non-inhibited sample, xis the final inhibitor concentration used in the assay, s is the slope factor and IC50 is the […] inhibitory concentration.
8 concentrations of the FAP inhibitors examined were examined, with always the same DMSO concentration. The inhibitors were pre-incubated at 37° C. for 15 min before the Z-Gly-Pro-AMC substrate was added. The release kinetics of AMC were measured at an excitation wavelength λex=380 nm and emission wavelength Δem=465 nm for at least 10 min.

In test [2] the target is T2, PREP (prolyl endopeptidase) (Homo sapiens, UniProt P48147).
T2 construct: made in house
T2 sequence (P48147 1-710): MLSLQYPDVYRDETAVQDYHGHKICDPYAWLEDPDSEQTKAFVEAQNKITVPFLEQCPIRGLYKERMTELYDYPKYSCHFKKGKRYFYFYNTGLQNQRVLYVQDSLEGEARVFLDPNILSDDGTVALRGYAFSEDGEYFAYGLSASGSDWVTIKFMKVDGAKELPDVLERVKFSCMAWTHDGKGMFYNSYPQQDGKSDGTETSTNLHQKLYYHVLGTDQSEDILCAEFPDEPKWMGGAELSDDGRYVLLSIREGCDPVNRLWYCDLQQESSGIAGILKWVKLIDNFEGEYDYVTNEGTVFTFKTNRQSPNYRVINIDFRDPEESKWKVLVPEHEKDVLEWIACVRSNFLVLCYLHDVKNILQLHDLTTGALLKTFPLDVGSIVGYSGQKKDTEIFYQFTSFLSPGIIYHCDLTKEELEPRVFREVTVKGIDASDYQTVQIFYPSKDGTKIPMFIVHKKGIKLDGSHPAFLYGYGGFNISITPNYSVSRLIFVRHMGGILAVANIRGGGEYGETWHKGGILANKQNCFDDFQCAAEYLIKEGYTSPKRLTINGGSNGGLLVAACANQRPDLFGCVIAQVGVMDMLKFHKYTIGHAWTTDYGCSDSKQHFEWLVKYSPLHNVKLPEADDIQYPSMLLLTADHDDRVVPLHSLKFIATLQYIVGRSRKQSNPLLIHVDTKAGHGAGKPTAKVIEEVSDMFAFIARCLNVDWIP
Description: PREP IC50 measurement with N-succinyl-Gly-Pro-AMC substrate. The conditions noted are these: N-succinyl-Gly-Pro-AMC 250 μM, pH=7.4. The procedure: as §1, §2, §3, §4
8 concentrations of the FAP inhibitors examined were examined, with always the same DMSO concentration. The inhibitors were pre-incubated at 37° C. for 15 min before the N-succinyl-Gly-Pro-AMC substrate was added. The release kinetics of AMC were measured at an excitation wavelength λex=380 nm and emission wavelength λem=465 nm for at least 10 min.

Test [3] concerns the target T3, DPP4 (dipeptidylpeptidase IV) (Homo sapiens, UniProt P27487).
T3 construct: made in house
In words: DPP4 IC50 measurement with Ala-Pro-pNA substrate. The conditions noted are these: Ala-Pro-pNA 25 μM, pH=7.4. The procedure: as §1, §2, §3, §4
(§5) At least 8 concentrations of the FAP inhibitors examined were examined, with always the same DMSO concentration. The inhibitors were pre-incubated at 37° C. for 15 min before the Ala-Pro-pNA substrate was added.

Test [4] deals with T4, DPP8 (dipeptidylpeptidase VIII) (Homo sapiens, UniProt Q6V1X1).
T4 construct: made in house
T4 sequence (Q6V1X1 whole entry, species assumed): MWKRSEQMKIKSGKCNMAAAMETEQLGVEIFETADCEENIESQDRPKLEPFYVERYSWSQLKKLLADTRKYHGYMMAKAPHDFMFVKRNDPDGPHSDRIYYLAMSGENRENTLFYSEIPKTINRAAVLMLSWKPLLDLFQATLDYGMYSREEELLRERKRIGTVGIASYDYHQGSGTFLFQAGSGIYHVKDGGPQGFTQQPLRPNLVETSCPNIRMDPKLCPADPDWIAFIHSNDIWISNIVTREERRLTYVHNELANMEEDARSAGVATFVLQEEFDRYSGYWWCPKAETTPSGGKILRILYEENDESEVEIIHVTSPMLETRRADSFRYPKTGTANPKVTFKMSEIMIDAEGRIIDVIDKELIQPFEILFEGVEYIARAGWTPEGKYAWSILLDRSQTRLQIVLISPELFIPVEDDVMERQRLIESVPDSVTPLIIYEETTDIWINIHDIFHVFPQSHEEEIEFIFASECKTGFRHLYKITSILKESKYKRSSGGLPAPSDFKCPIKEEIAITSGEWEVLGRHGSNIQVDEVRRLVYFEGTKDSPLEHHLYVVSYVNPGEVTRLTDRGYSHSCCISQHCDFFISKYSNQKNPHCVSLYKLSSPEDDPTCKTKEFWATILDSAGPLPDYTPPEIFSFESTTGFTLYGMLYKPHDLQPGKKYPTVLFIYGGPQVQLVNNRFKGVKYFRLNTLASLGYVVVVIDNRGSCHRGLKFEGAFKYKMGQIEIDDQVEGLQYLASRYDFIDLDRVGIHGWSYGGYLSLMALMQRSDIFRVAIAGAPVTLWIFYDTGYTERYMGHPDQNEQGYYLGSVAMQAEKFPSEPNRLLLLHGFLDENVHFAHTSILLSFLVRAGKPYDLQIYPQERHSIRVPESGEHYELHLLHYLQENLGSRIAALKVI
In words: DPP8 IC50 measurement with Ala-Pro-pNA substrate. The conditions noted are these: Ala-Pro-pNA 300 μM, pH=7.4. The procedure:
as §1, §2, §3, §4
At least 8 concentrations of the FAP inhibitors examined were examined, with always the same DMSO concentration. The inhibitors were pre-incubated at 37° C. for 15 min before the Ala-Pro-pNA substrate was added. The release kinetics of pNA were measured at a wavelength of λex=405 nm for at least 10 min.

Test [5] addresses T5, DPP 9 (dipeptidylpeptidase IX) (Homo sapiens, UniProt Q86TI2).
T5 construct: made in house
In words: DPP9 IC50 measurement with Ala-Pro-pNA substrate. The conditions noted are these: Ala-Pro-pNA 150 μM, pH=7.4. The procedure: as §1, §2, §3, §4, §5

T3 sequence (P27487 whole entry, species assumed): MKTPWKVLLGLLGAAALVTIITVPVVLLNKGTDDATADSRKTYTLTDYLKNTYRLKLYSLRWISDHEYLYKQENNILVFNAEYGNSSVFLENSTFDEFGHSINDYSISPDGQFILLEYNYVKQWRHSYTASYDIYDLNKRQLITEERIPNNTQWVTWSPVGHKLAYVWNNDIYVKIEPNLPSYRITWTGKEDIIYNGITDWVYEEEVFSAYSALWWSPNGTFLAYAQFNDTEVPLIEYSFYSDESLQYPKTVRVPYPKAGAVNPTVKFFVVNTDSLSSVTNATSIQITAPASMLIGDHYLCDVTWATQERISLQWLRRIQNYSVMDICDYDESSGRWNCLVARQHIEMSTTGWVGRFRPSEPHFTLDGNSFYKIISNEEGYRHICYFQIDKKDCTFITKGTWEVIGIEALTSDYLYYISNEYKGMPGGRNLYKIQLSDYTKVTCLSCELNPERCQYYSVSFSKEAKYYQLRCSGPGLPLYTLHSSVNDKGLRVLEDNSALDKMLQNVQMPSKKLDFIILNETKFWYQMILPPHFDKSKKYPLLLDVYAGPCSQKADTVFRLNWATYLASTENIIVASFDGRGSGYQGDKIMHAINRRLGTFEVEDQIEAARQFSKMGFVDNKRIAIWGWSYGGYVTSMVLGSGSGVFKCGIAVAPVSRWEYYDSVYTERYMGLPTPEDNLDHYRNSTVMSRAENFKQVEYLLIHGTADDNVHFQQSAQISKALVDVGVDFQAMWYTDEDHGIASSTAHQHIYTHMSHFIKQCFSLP
T5 sequence (Q86TI2 whole entry, species assumed): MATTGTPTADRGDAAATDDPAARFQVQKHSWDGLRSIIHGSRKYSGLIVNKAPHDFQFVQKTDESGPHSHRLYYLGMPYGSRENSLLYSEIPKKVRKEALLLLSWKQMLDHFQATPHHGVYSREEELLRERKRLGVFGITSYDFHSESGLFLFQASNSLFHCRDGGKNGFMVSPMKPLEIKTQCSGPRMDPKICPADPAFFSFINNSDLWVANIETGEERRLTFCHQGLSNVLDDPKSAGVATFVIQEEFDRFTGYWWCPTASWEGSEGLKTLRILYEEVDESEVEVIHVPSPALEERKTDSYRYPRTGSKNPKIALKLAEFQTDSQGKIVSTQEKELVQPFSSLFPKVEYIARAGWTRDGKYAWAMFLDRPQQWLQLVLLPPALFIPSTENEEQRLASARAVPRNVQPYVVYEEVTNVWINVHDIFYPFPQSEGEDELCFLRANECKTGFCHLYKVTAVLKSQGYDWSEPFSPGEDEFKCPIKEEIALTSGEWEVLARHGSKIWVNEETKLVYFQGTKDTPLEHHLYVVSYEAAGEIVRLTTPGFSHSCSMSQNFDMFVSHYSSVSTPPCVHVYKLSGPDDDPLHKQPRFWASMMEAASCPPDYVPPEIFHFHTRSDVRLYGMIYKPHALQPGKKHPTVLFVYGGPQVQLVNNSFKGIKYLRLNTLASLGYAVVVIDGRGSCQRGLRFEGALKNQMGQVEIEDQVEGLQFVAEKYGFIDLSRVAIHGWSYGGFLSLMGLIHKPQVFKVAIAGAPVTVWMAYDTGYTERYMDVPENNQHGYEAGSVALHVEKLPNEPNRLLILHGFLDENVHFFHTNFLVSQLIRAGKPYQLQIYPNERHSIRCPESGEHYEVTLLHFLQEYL

`N#C[C@@H]1CC(F)(F)CN1C(=O)CNC(=O)c1ccnc2ccc(OCCCCNC(=O)CC[C@H](NC(=O)CCC(C(=O)O)N3CCN(CC(=O)O)CCN(CC(=O)O)CCN(CC(=O)O)CC3)C(=O)NCCCCOc3ccc4nccc(C(=O)NCC(=O)N5CC(F)(F)C[C@H]5C#N)c4c3)cc12` (stereo partly drawn) [DOTAGA.Glu.(FAPi)2, 2,2′,2″-(10-(4-(((S)-1,5-bis((4-((4-((2-((S)-2-cyano-4,4-difluoropyrrolidin-1-yl)-2-oxoethyl)carbamoyl)quinolin-6-yl)oxy)butyl)amino)-1,5-dioxopentan-2-yl)amino)-1-carboxy-4-oxobutyl)-1,4,7,10-tetraazacyclododecan-1,4,7-triyl)triacetic acid]: the 50% inhibitory concentration (IC50) in test [1] stood at 0.26 ± 0.04 nM; in test [2], 590 ± 100 nM; in test [3] it was 1190 ± 80 nM; in test [4], 29 ± 4 nM; in test [5], 83 ± 1.5 nM.
For the compound `CN(CC(=O)O)C1(CCCCC(=O)N[C@@H](CCC(=O)NCCCCOc2ccc3nccc(C(=O)NCC(=O)N4CC(F)(F)C[C@H]4C#N)c3c2)C(=O)NCCCCOc2ccc3nccc(C(=O)NCC(=O)N4CC(F)(F)C[C@H]4C#N)c3c2)CN(CC(=O)O)CCN(CC(=O)O)C1` [DATA^5m.Glu.(FAPi)2, 2,2′-(6-(5-(((S)-1,5-bis((4-((4-((2-((S)-2-cyano-4,4-difluoropyrrolidin-1-yl)-2-oxoethyl)carbamoyl)quinolin-6-yl)oxy)butyl)amino)-1,5-dioxopentan-2-yl)amino)-5-oxopentyl)-6-((carboxymethyl)(methyl)amino)-1,4-diazepane-1,4-diyl)diacetic acid], the 50% inhibitory concentration (IC50) is 0.71 ± 0.05 nM in test [1]; 310 ± 60 nM in test [2]; 1570 ± 60 nM in test [3]; 2220 ± 400 nM in test [4]; 770 ± 110 nM in test [5].
On the same counts, the results for `N#C[C@@H]1CC(F)(F)CN1C(=O)CNC(=O)c1ccnc2ccc(OCCCCNC(=O)CC[C@H](NC(=O)CN3CCN(CC(=O)O)CCN(CC(=O)O)CCN(CC(=O)O)CC3)C(=O)NCCCCOc3ccc4nccc(C(=O)NCC(=O)N5CC(F)(F)C[C@H]5C#N)c4c3)cc12` [DOTA.Glu.(FAPi)2, 2,2′,2″-(10-(2-(((S)-1,5-bis((4-((4-((2-((S)-2-cyano-4,4-difluoropyrrolidin-1-yl)-2-oxoethyl)carbamoyl)quinolin-6-yl)oxy)butyl)amino)-1,5-dioxopentan-2-yl)amino)-2-oxoethyl)-1,4,7,10-tetraazacyclododecan-1,4,7-triyl)triacetic acid] are 0.6 ± 0.04 nM, 1000 ± 140 nM, 540 ± 60 nM, 1030 ± 180 nM and 950 ± 110 nM.
As to `N#C[C@@H]1CC(F)(F)CN1C(=O)CNC(=O)c1ccnc2ccccc12` [UAMC1110, (S)—N-(2-(2-cyano-4,4′-difluoropyrrolidin-1-yl)-2-oxoethyl)quinoline-4-carboxamide, reference compound], the IC50 in test [4] was more than 10000 nM.
